Reference: patent US11629133B2, “Perfluoroaminoolefins and methods of making and using the same” (3M INNOVATIVE PROPERTIES COMPANY, priority 2018, dated 2023)

What was measured:
Type in all cases: physicochemical
[1] = Pour point, determined visually; details: lowest temperature at which sample flows within 5 sec held horizontally
Procedure: […] of the sample was placed in a vial and cooled in a liquid nitrogen-cooled pentane bath until it solidified. The sample was then allowed to warm slowly in the pentane bath by removal of the liquid nitrogen cooling source (typically an increase of 1-2° C./minute) and observed every 3-5° C.

[2] = Thermal stability of PE-1 with absorbents, purity by GC-FID
Procedure: GC-FID analysis was carried out on an Agilent Technologies 7890B GC System (Santa Clara Calif.) equipped with a Restek RtX-200 gas chromatography column (Bellefonte, Pa.) and helium carrier gas. Once material was injected into the column, the following temperature sequence was executed: 5 min hold at 40° C., 10° C./minute temperature increase over the span of 21 min to reach a final temperature of 250° C., and then a 15 min hold at 250° C. Data analysis by use of Agilent Open LAB CDSA ChemStation software enabled the determination of product purities and GC yields.
Thermal stability was measured by charging 1.0 g of PE-1 into glass vials and then adding a weighed amount of absorbent. The samples were stirred for 24 hours at 60° C., allowed to cool, and then analyzed by GC-FID for decomposition and purity changes.

[3] = Dielectric constant per ASTM D150-11; details: measured at 1 kHz
Procedure: The dielectric constant (tested per ASTM D150-11) of PE-1 was measured. The dielectric constant measured at 1 kHz was 1.98.

With “2,2,3,3,4,4,5,5-octafluoro-1-(perfluoropent-2-en-3-yl)pyrrolidine and 2,2,3,3,4,4,5,5-octafluoro-1-(perfluoropent-2-en-2-yl)pyrrolidine [PE-4]” the Pour point [1] was −90 °C.
With `FC1=C(N2C(F)(F)C(F)(F)C(F)(F)C2(F)F)C(F)(F)C(F)(F)C(F)(F)C1(F)F` [PE-1, 2,2,3,3,4,4,5,5-octafluoro-1-(perfluorocyclohex-1-en-1-yl)pyrrolidine] the “Purity, %” value ([2]; 4 Angstrom Molecular Sieves, stirred 24 hours at 60° C.) was 97.3%, the “Purity, %” value ([2]; Activated Carbon, stirred 24 hours at 60° C.) was 97.7% and the “Purity, %” value ([2]; Basic Alumina, stirred 24 hours at 60° C.) was 97.6%. The “Purity, %” value ([2]; K2CO3, stirred 24 hours at 60° C.) was 97.6%, the “Purity, %” value ([2]; No Absorbent, stirred 24 hours at 60° C.) was 97.7% and the “Purity, %” value ([2]; Silica Gel, stirred 24 hours at 60° C.) was 97.7%. For the same molecule, the Pour point [1] was −34 °C and the dielectric constant [3] was 1.98.
For `FC1=C(N2C(F)(F)C(F)(F)C(F)(F)C2(F)F)C(F)(F)C(F)(F)C1(F)F` [PE-2, 2,2,3,3,4,4,5,5-octafluoro-1-(perfluorocyclopent-1-en-1-yl)pyrrolidine], the Pour point [1] was −33 °C.
`FC1=C(N2C(F)(F)C(F)(F)OC(F)(F)C2(F)F)C(F)(F)C(F)(F)C1(F)F` [PE-3, 2,2,3,3,5,5,6,6-octafluoro-4-(perfluorocyclopent-1-en-1-yl)morpholine] showed a Pour point [1] of −49 °C.
